Experimental data taken from PMC8880132 (Molecules, 2022).
Like-named read-outs stand apart in the source and are kept apart here.

How the values were obtained:
[1] = Pharmacokinetic drug-drug interaction study in rats after oral administration; format: in vivo, SD (Sprague-Dawley) rats; conditions: for Cmax / Tmax / half-life / AUC(0-inf) / AUC(0-t): male, Sprague-Dawley, rat, plasma, po; for Cmax / Tmax / half-life / AUC(0-inf) / AUC(0-t) / CLz / Vz: rat plasma; for Tmax: median (range); for half-life: read-out: t1/2z (converted)
Experimental: SPF (specific pathogen free)-grade male SD (Sprague-Dawley) rats (weight: 230 ± 10 g) were purchased from Beijing Weitong Lihua Experimental Animal Technology Co. Ltd. (Beijing, China). Before starting the experiment, the rats were given sufficient food and water and kept under suitable conditions for one week. Suitable conditions included suitable temperature (23–27 °C), suitable humidity (50 ± 10%), and 12-h light–12-h dark diurnal cycle. All animals were fasted for 12 h before the start of the experiment, but they were allowed to drink water freely. All the animal experimental protocols were conducted in accordance with the UK Animals (Scientific Procedures) Act 1986 and under the guideline approved by the Ethics Committee of Hebei General Hospital (Shijiazhuang, China; No. 2021131).
Twenty-four healthy rats were randomly and equally divided into four groups (six animals in each group). […] Approximately 0.3 mL of blood was collected from the orbital venous plexus in a heparinized centrifuge tube from each rat at 0.25, 0.5, 1, 2, 3, 4, 6, 8, 10, 12, 24, 48, 72, and 96 h after administration. […] The blood samples were collected from each rat at 0.17, 0.33, 0.5, 0.75, 1, 2, 3, 4, 6, 8, 10, 12, 24, 48, and 72 h after administration. Blood samples were centrifuged at 3500 rpm for 10 min, and the plasma samples (supernatant) were harvested and stored at −80 °C.
The main pharmacokinetic parameters are presented as mean ± standard deviation and statistically analyzed using SPSS 25.0 software package (SPSS Inc., Chicago, IL, USA). A p-value of <0.05 was considered statistically significant.

[2] = Stability of LEN and TEL in rat plasma under various storage conditions; format: in vitro ADME; conditions: for Stability, measured concentration Mean ± SD / Stability, Accuracy (RE%) vs nominal concentration: rat plasma; for Stability, measured concentration Mean ± SD: n = 6
Experimental: QC samples with six replicates of each concentration were used to assess the stability of the samples under different processing and storage conditions. […] The long-term stability was carried out by freezing at −80 °C for 30 days, and the freeze–thaw stability was verified by repeatedly freezing and thawing three times.

[3] = tested on: breast cancer resistance protein (BCRP); conditions: cited from earlier work
[4] = cited from earlier work
P-glycoprotein (P-gp) = conditions: cited from earlier work
[5] = tested on: multidrug resistance-associated protein 2 (MRP2); conditions: in vitro studies; cited from earlier work
[6] = cited from earlier work; remark: listed apart in the source
[7] = 1.2 mg/kg, LEN 1.2 mg/kg oral, alone
[8] = 1.2 mg/kg, LEN 1.2 mg/kg oral, with TEL (4 mg/kg)
[9] = LEN 1.2 mg/kg oral, with TEL (4 mg/kg)
[10] = autosampler for 24 h, high QC (800 ng/mL LEN, 400 ng/mL TEL)
[11] = autosampler for 24 h, low QC (0.5 ng/mL LEN, 0.25 ng/mL TEL)
[12] = freeze–thaw three times, high QC (800 ng/mL LEN, 400 ng/mL TEL)
[13] = freeze–thaw three times, low QC (0.5 ng/mL LEN, 0.25 ng/mL TEL)
[14] = freeze–thaw three times, medium QC (150 ng/mL LEN, 75 ng/mL TEL)
[15] = room temperature for 8 h, high QC (800 ng/mL LEN, 400 ng/mL TEL)
[16] = room temperature for 8 h, low QC (0.5 ng/mL LEN, 0.25 ng/mL TEL)
[17] = room temperature for 8 h, medium QC (150 ng/mL LEN, 75 ng/mL TEL)
[18] = −80 °C for 30 days, high QC (800 ng/mL LEN, 400 ng/mL TEL)
[19] = −80 °C for 30 days, low QC (0.5 ng/mL LEN, 0.25 ng/mL TEL)
[20] = −80 °C for 30 days, medium QC (150 ng/mL LEN, 75 ng/mL TEL)
[21] = TEL 4 mg/kg with LEN 1.2 mg/kg vs TEL alone, rats, oral
[22] = 4 mg/kg, TEL 4 mg/kg oral, alone
[23] = 4 mg/kg, TEL 4 mg/kg oral, with LEN (1.2 mg/kg)
[24] = autosampler for 24 h, medium QC (150 ng/mL LEN, 75 ng/mL TEL)

Work on `COc1cc2nccc(Oc3ccc(NC(=O)NC4CC4)c(Cl)c3)c2cc1C(N)=O` [LEN, Lenvatinib] yielded a Cmax [1, 7] of 498 ± 107 ng/mL, a Tmax [1, 7] of 2.5 h and a half-life [1, 7] of 8.75 ± 2.55 h. The AUC(0-inf) [1, 8] was 5860 ± 1350 ng·h/mL, the AUC(0-t) [1, 8] was 5860 ± 1350 ng·h/mL and the Cmax [1, 8] was 644 ± 211 ng/mL. For the same compound, the half-life [1, 8] was 9.32 ± 4.69 h, the CLz ([1]; LEN 1.2 mg/kg oral, alone) was 3.5 ± 0.33 mL/min/kg and the Vz ([1]; LEN 1.2 mg/kg oral, alone) was 2.69 ± 0.79 L/kg. The CLz [1, 9] was 3.67 ± 0.83 mL/min/kg, the Vz [1, 9] was 2.92 ± 1.60 L/kg and the “Stability, measured concentration Mean ± SD” value [2, 10] was 835.67 ± 34.60 ng/mL. For the same compound, the “Stability, measured concentration Mean ± SD” value [2, 11] was 0.48 ± 0.03 ng/mL, the “Stability, measured concentration Mean ± SD” value [2, 12] was 787.50 ± 40.13 ng/mL and the “Stability, measured concentration Mean ± SD” value [2, 13] was 0.48 ± 0.05 ng/mL. For the same compound, the “Stability, measured concentration Mean ± SD” value [2, 14] was 150.17 ± 14.85 ng/mL, the “Stability, measured concentration Mean ± SD” value [2, 15] was 751.50 ± 19.74 ng/mL and the “Stability, measured concentration Mean ± SD” value [2, 16] was 0.52 ± 0.03 ng/mL. For the same compound, the “Stability, measured concentration Mean ± SD” value [2, 17] was 149.33 ± 11.15 ng/mL, the “Stability, measured concentration Mean ± SD” value [2, 18] was 808.00 ± 59.16 ng/mL and the “Stability, measured concentration Mean ± SD” value [2, 19] was 0.53 ± 0.05 ng/mL. The “Stability, measured concentration Mean ± SD” value [2, 20] was 154.00 ± 4.77 ng/mL, the BCRP interaction [3] was “substrate” and the water solubility [4] was “poor water solubility”. The P-gp interaction (P-glycoprotein (P-gp)) was “substrate”.
For `CCCc1nc2c(C)cc(-c3nc4ccccc4n3C)cc2n1Cc1ccc(-c2ccccc2C(=O)O)cc1` [TEL, Telmisartan], the “AUC0–72h reduced by” value [1, 21] was 44.9%, the “AUC0–∞ reduced by” value [1, 21] was 41.3% and the “Cmax reduced by” value [1, 21] was 42.2%. The “Vz higher by” value [1, 21] was 97.1%, the “increase in CL” value [1, 21] was 69% and the AUC(0-inf) [1, 22] was 4180 ± 1040 ng·h/mL. It also gave an AUC(0-t) [1, 22] of 4150 ± 1040 ng·h/mL, a Cmax [1, 22] of 171 ± 38 ng/mL and a Tmax [1, 22] of 8 h. It also gave a half-life [1, 22] of 9.36 ± 2.09 h, an AUC(0-inf) [1, 23] of 2460 ± 544 ng·h/mL and an AUC(0-t) [1, 23] of 2280 ± 322 ng·h/mL. For the same compound, the Cmax [1, 23] was 99 ± 19.3 ng/mL, the Tmax [1, 23] was 11 h and the half-life [1, 23] was 12.4 ± 12.7 h. The CLz ([1]; TEL 4 mg/kg oral, alone) was 16.7 ± 3.5 mL/min/kg, the CLz ([1]; TEL 4 mg/kg oral, with LEN (1.2 mg/kg)) was 28.2 ± 5.83 mL/min/kg and the “Stability, Accuracy (RE%) vs nominal concentration” value (from here on “Stability, Accuracy (RE%)”) [2, 10] was −0.38%. For the same compound, the “Stability, measured concentration Mean ± SD” value [2, 10] was 398.50 ± 22.76 ng/mL, the “Stability, Accuracy (RE%)” value [2, 11] was −4.33% and the “Stability, measured concentration Mean ± SD” value [2, 11] was 0.24 ± 0.02 ng/mL. For the same compound, the “Stability, Accuracy (RE%)” value [2, 24] was −1.76%, the “Stability, measured concentration Mean ± SD” value [2, 24] was 73.68 ± 1.59 ng/mL and the “Stability, Accuracy (RE%)” value [2, 12] was −2.17%. The “Stability, measured concentration Mean ± SD” value [2, 12] was 391.33 ± 25.73 ng/mL, the “Stability, Accuracy (RE%)” value [2, 13] was −0.47% and the “Stability, measured concentration Mean ± SD” value [2, 13] was 0.25 ± 0.01 ng/mL. For the same compound, the “Stability, Accuracy (RE%)” value [2, 14] was −3.53%, the “Stability, measured concentration Mean ± SD” value [2, 14] was 72.35 ± 2.51 ng/mL and the “Stability, Accuracy (RE%)” value [2, 15] was −7.58%. For the same compound, the “Stability, measured concentration Mean ± SD” value [2, 15] was 369.67 ± 6.98 ng/mL, the “Stability, Accuracy (RE%)” value [2, 16] was −3.53% and the “Stability, measured concentration Mean ± SD” value [2, 16] was 0.24 ± 0.01 ng/mL. For the same compound, the “Stability, Accuracy (RE%)” value [2, 17] was −2.36%, the “Stability, measured concentration Mean ± SD” value [2, 17] was 73.23 ± 5.40 ng/mL and the “Stability, Accuracy (RE%)” value [2, 18] was 0.38%. The “Stability, measured concentration Mean ± SD” value [2, 18] was 401.50 ± 27.46 ng/mL, the “Stability, Accuracy (RE%)” value [2, 19] was 1.80% and the “Stability, measured concentration Mean ± SD” value [2, 19] was 0.25 ± 0.01 ng/mL. For the same compound, the “Stability, Accuracy (RE%)” value [2, 20] was −0.36%, the “Stability, measured concentration Mean ± SD” value [2, 20] was 74.73 ± 1.64 ng/mL and the “stability of plasma samples” value ([2]; room temperature 8 h, autosampler 24 h after processing, −80 °C 30 days, freezing and thawing three times) was “stable”. The BCRP interaction ([3]; in vitro studies) was “substrate and inhibitor”, the MRP2 interaction [5] was “substrate and inhibitor” and the water solubility ([4]; solubility is related to PH) was “poorly water-soluble”. For the same compound, the P-gp interaction (P-glycoprotein (P-gp); in vitro studies) was “substrate and inhibitor” and the half-life [6] was 24 h.
